One test relates to SB.mhdgc-1. In words: AC50 for growth inhibition (viability) (log10 M); higher = less potent. The conditions noted are these: SB.mhdgc-1 (hereditary c.1380delA CDH1 gastric cancer). Summed up:
(§1)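 After 48 h with compound, plates received CellTiter-Glo for 30 min at room temperature and were read for luminescence on a ViewLux. The cells were patient-derived gastric cancer lines of hereditary or sporadic origin, plated at 500 cells in 5 μL medium per 1536 well and pinned with 23 nL compound in DMSO, at 11 threefold dilutions from a final 46 μM. For the log half-maximal activity concentration, DMSO-normalised viability was fitted with four parameters and only high-quality curve classes were kept.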

The next test deals with SB.msgc-1. The description is as above. As to conditions: SB.msgc-1 (sporadic gastric cancer). Summed up:
as §1

With `COC(=O)Nc1ccc(-c2nc(N3CCOCC3)c3cnn(C4CCN(Cc5cccnc5)CC4)c3n2)cc1` [WYE-687], the “AC50 for growth inhibition (log10 M)” value was -7.18 with SB.mhdgc-1 and -4.68 in the test with SB.msgc-1.

For `C=CC(=O)Nc1cccc(Oc2nc(Nc3ccc(N4CCN(C)CC4)cc3)ncc2Cl)c1` [WZ-3146], the “AC50 for growth inhibition (log10 M)” value in the test with SB.mhdgc-1 is -5.18; in the test on SB.msgc-1, -5.88.

`C=CC(=O)Nc1cccc(Oc2nc(Nc3ccc(N4CCN(C)CC4)cc3OC)ncc2Cl)c1` [WZ-4002]: the “AC50 for growth inhibition (log10 M)” value in the test with SB.mhdgc-1 is -4.83; in the test on SB.msgc-1, -7.78.

Regarding `C[C@H]([C@H]1C\C(=C(CO)/C(=O)O1)C)[C@H]2CC[C@H]3[C@@H]4C[C@H]5O[C@]56[C@@H](O)\C=C/C(=O)[C@]6(C)[C@H]4CC[C@]23C` [Withaferin A], the “AC50 for growth inhibition (log10 M)” value in the test on SB.mhdgc-1 was -5.68; in the test with SB.msgc-1, -5.78.

Consider `CCN1CCC(n2cc(CNc3cc(Cl)c4ncc(C#N)c(Nc5ccc(F)c(Cl)c5)c4c3)nn2)CC1` [Wyeth Cot inhibitor-2], for which the results for the “AC50 for growth inhibition (log10 M)” value with SB.mhdgc-1 and in the test with SB.msgc-1 were -5.03 and -4.73, respectively.

Take `CCOc1cc(N2CCC(O)CC2)ccc1Nc1ncc2c(n1)N(C)c1ccccc1C(=O)N2C` [XMD8-92]: the results for the “AC50 for growth inhibition (log10 M)” value in the test on SB.mhdgc-1 and in the test on SB.msgc-1 were -5.98 and -5.18, respectively.

For the compound `Cc1cc(C(=O)N2CCN(c3cccc(Cl)c3)CC2)n(-c2ccccc2)n1` [XRP-44X], the “AC50 for growth inhibition (log10 M)” value with SB.mhdgc-1 is -6.38; in the test on SB.msgc-1, -5.48.

`COc1ccc(C(=O)CC2(O)C(=O)Nc3c(Cl)ccc(Cl)c32)cc1` (stereo not drawn) [YK-4-279]: the figures for the “AC50 for growth inhibition (log10 M)” value with SB.mhdgc-1 and with SB.msgc-1 were -5.78 and -5.63, respectively.

As for `CN(C)c1ccc2cc(C(=O)N[C@@H](CCCNC(=N)CCl)C(=O)NCc3ccccc3)ccc2c1` [YW3-56], the “AC50 for growth inhibition (log10 M)” value with SB.mhdgc-1 was -4.78; in the test on SB.msgc-1 it was -5.03.

For `FC(F)c1nc2ccccc2n1-c1nc(N2CCOCC2)nc(N2CCOCC2)n1` [ZSTK-474], the “AC50 for growth inhibition (log10 M)” value with SB.mhdgc-1 was -6.48; in the test with SB.msgc-1, -5.98.

Consider `CC(C(=O)O)c1ccc2c(c1)CC(=O)c1ccccc1S2` (stereo not drawn) [Zaltoprofen], for which the entries for the “AC50 for growth inhibition (log10 M)” value in the test on SB.mhdgc-1 and in the test with SB.msgc-1 were -5.43 and -5.13, respectively.

Turning to `C\C1=C\N([C@H]2C[C@H](N=[N+]=[N-])[C@@H](CO)O2)C(=O)NC1=O` [Zidovudine], the “AC50 for growth inhibition (log10 M)” value in the test on SB.mhdgc-1 is -5.03; with SB.msgc-1, -4.58.

Regarding `CC(C)N[C@@H]1CCn2c(=O)[nH]c3cccc(c32)[C@H]1O` [Zilpaterol], the “AC50 for growth inhibition (log10 M)” value in the test on SB.mhdgc-1 is -5.33; with SB.msgc-1, -5.63.

`Cl.Cl.Cl.O[C@@H](COc1cccc2ncccc12)CN1CCN([C@@H]2c3ccccc3[C@@H]3[C@H](c4ccccc42)C3(F)F)CC1` [Zosuquidar trihydrochloride]: the “AC50 for growth inhibition (log10 M)” value was -4.93 in the test on SB.mhdgc-1 and -5.28 in the test on SB.msgc-1.

In the case of `ClC1=CC=C2N/C3=N/C(=O)CN3CC2=C1Cl` [anagrelide], the “AC50 for growth inhibition (log10 M)” value is -4.73 with SB.mhdgc-1 and -4.78 in the test with SB.msgc-1.

As to `CC1=C(/C=C/C(C)=C/C=C/C(C)=C/C=C/C=C(C)/C=C/C=C(C)/C=C/C2=C(C)CCCC2(C)C)C(C)(C)CCC1` [beta-Carotene], the “AC50 for growth inhibition (log10 M)” value was -5.13 with SB.mhdgc-1 and -4.88 with SB.msgc-1.

`CC1(C)CC\C2=C(/O1)C3=C(C=CC=C3)C(=O)C2=O` [beta-Lapachone]: the figures for the “AC50 for growth inhibition (log10 M)” value in the test on SB.mhdgc-1 and in the test with SB.msgc-1 were -4.58 and -4.63, respectively.

With `CC/1=C/C(=O)N(O)/C(=C1)C2CCCCC2` [ciclopirox], the “AC50 for growth inhibition (log10 M)” value in the test on SB.mhdgc-1 is -4.73; with SB.msgc-1, -5.43.

Regarding `C[C@@H]1C[C@@H]([C@H](O)CC2CC(=O)NC(=O)C2)C(=O)[C@@H](C)C1` [cycloheximide], the “AC50 for growth inhibition (log10 M)” value in the test on SB.mhdgc-1 is -6.73; in the test with SB.msgc-1 it was -6.53.
